One series concerns Rauscher leukemia virus. Put plainly: Antibody response to sheep red blood cells in Rauscher leukemia virus-infected (leukemic) mice, hemagglutinin test. Format: in vivo, BALB/C mice. The note with it: for Hemagglutinin Titer* Test 1: reciprocal of serum dilution producing at least 50% agglutination, infected control 8, non-infected control 1024; for Hemagglutinin Titer* Test 6: infected control 32, non-infected control 2048; for Hemagglutinin Titer* Test 5: infected control 128, non-infected control 4096.

Series [1] concerns transplantable C3H mammary tumor. In words: Transplanted C3H mammary tumor growth in mice. The note with it: for Ave. tumor diameter (mm.^2) (weeks after tumor implantation 3): week 3, untreated control 22; for Ave. tumor diameter (mm.^2) (weeks after tumor implantation 4): week 4, untreated control 73; for Ave. tumor diameter (mm.^2) (weeks after tumor implantation 5): week 5, untreated control 149; for Ave. tumor diameter (mm.^2) (weeks after tumor implantation 6): week 6, untreated control 218; for Ave. tumor diameter (mm.^2) (weeks after tumor implantation 7): week 7, untreated control 316.
Method: C3H/HEB/J male mice were inoculated subcutaneously with five 2 mm. fragments of a transplantable C3H mammary tumor on day zero. Drugs were administered once every 7 days for 5 weeks, starting 14 days after tumor inoculation. When test drug (or the control, Corynebacterium parvum) was administered in combination with Cytoxan, it was given 4 days after the Cytoxan. […] Tumor diameters were measured by means of a Vernier caliper. Test substances were considered active if tumor growth, as indicated by tumor diameter, was inhibited by 50% or more.

Setting [2] is: 100 mg/kg orally days 6, 7, 8, reciprocal serum dilution, infected control 32, non-infected control 512.
Where [3] appears, read: 100 mg./kg. orally + Cytoxan 60 mg./kg.
The mark [4] stands for this setting: 200 mg./kg. orally + Cytoxan 60 mg./kg.
[5] abbreviates: 300 mg./kg. orally + Cytoxan 60 mg./kg.
Setting [6] is: Cytoxan 60 mg./kg. intraperitoneally alone.

Counter-ions that a name gives are not always drawn.

`CN(C)CCCOc1ccc2cc3ccc(OCCCN(C)C)cc3nc2c1` [3,6-Bis-(3-dimethylaminopropoxy)acridine]: in the series on Rauscher leukemia virus (100 mg/kg orally days 6, 7, 8), the “Hemagglutinin Titer* Test 1” value came out at 128. In addition, the “Hemagglutinin Titer* Test 2” value with Rauscher leukemia virus (setting [2]) was 128.
As to `CCN(CC)CCOc1ccc2cc3ccc(OCCN(CC)CC)cc3nc2c1.Cl.Cl.Cl` [3,6-Bis-(2-diethylaminoethoxy)acridine trihydrochloride], the “Hemagglutinin Titer* Test 6” value turned out to be 64 in the series with Rauscher leukemia virus (37.5 mg/kg orally days 6, 7, 8, reciprocal serum dilution); 128 with Rauscher leukemia virus (75 mg/kg orally days 6, 7, 8, reciprocal serum dilution); 128 with Rauscher leukemia virus (150 mg/kg orally days 6, 7, 8, reciprocal serum dilution); 128 in the series with Rauscher leukemia virus (300 mg/kg orally days 6, 7, 8, reciprocal serum dilution); 256 in the series on Rauscher leukemia virus (600 mg/kg orally days 6, 7, 8, reciprocal serum dilution). The “Hemagglutinin Titer* Test 4” value in the series with Rauscher leukemia virus (50 mg/kg orally days 6, 7, 8, reciprocal serum dilution, infected control 32, non-infected control 512) is listed as 128; with Rauscher leukemia virus (setting [2]), 256. In addition, the “Hemagglutinin Titer* Test 5” value in the series on Rauscher leukemia virus (50 mg/kg orally days 6, 7, 8, reciprocal serum dilution) amounted to 128; in the series on Rauscher leukemia virus (100 mg/kg orally days 6, 7, 8, reciprocal serum dilution), 512; in the series with Rauscher leukemia virus (200 mg/kg orally days 6, 7, 8, reciprocal serum dilution), 512. Moreover, in the series on Rauscher leukemia virus (setting [2]), the “Hemagglutinin Titer* Test 3” value is given as 128. For the same compound, the “Ave. tumor diameter (mm.^2) (weeks after tumor implantation 3)” value in series [1] (100 mg./kg. orally + Cytoxan 60 mg./kg. i.p. (given 4 days after Cytoxan)) was found to be 34 mm.^2; in series [1] (200 mg./kg. orally + Cytoxan 60 mg./kg. i.p. (given 4 days after Cytoxan)), 32 mm.^2; in series [1] (200 mg./kg. orally alone, once every 7 days), 22 mm.^2; in series [1] (300 mg./kg. orally + Cytoxan 60 mg./kg. i.p. (given 4 days after Cytoxan)), 37 mm.^2; in series [1] (300 mg./kg. orally alone, once every 7 days), 61 mm.^2. In addition, the “Ave. tumor diameter (mm.^2) (weeks after tumor implantation 4)” value in series [1] (setting [3]) amounted to 53 mm.^2; in series [1] (setting [4]), 66 mm.^2; in series [1] (200 mg./kg. orally alone) it was 44 mm.^2; in series [1] (setting [5]), 71 mm.^2; in series [1] (300 mg./kg. orally alone), 98 mm.^2. Besides, the “Ave. tumor diameter (mm.^2) (weeks after tumor implantation 5)” value came out at 112 mm.^2 in series [1] (setting [3]); 82 mm.^2 in series [1] (setting [4]); 109 mm.^2 in series [1] (200 mg./kg. orally alone); 99 mm.^2 in series [1] (setting [5]); 220 mm.^2 in series [1] (300 mg./kg. orally alone). The “Ave. tumor diameter (mm.^2) (weeks after tumor implantation 6)” value in series [1] (setting [3]) turned out to be 149 mm.^2; in series [1] (setting [4]), 115 mm.^2; in series [1] (200 mg./kg. orally alone), 148 mm.^2; in series [1] (setting [5]), 128 mm.^2; in series [1] (300 mg./kg. orally alone), 375 mm.^2. For the same compound, the “Ave. tumor diameter (mm.^2) (weeks after tumor implantation 7)” value stood at 107 mm.^2 in series [1] (setting [3]), 135 mm.^2 in series [1] (setting [4]), 223 mm.^2 in series [1] (200 mg./kg. orally alone) and 160 mm.^2 in series [1] (setting [5]). For the same compound, in series [1] (administered alone at 300, 200 and 100 mg./kg. every week for 5 weeks), the “inhibitory effect on mammary tumor growth compared to the untreated control” value is recorded as “only the 200 mg./kg. dose level produced an inhibitory effect”. In addition, the “tumor growth being inhibited” value in series [1] (combined with Cytoxan 60 mg./kg., all dose levels (300, 200, 100 mg./kg.)) was 50 - 65%. The “tumor diameter of treated mice averaging” value in series [1] (combined with Cytoxan 60 mg./kg., all dose levels, 316 mm.^2 for the untreated controls) is given as 107 - 160 mm.^2.
As for `CN(C)CCOc1ccc2cc3ccc(OCCN(C)C)cc3nc2c1` [3,6-Bis-(2-dimethylaminoethoxy)acridine], in the series on Rauscher leukemia virus (100 mg/kg orally days 6, 7, 8), the “Hemagglutinin Titer* Test 1” value worked out at 128. Moreover, in the series on Rauscher leukemia virus (setting [2]), the “Hemagglutinin Titer* Test 2” value came out at 128.
For the compound `CN(C)C(C)(C)COc1ccc2cc3ccc(OCC(C)(C)N(C)C)cc3nc2c1` [3,6-Bis-(2-dimethylamino-2-methylpro-poxy)acridine trihydrochloride], the “Hemagglutinin Titer* Test 1” value with Rauscher leukemia virus (100 mg/kg orally days 6, 7, 8) was determined as 64.
Consider `CCCCN(CCCC)CCOc1ccc2cc3ccc(OCCN(CCCC)CCCC)cc3nc2c1` [3,6-Bis-(2-di-n-butylaminoethoxy)acri-dine trihydrochloride], for which, in the series on Rauscher leukemia virus (100 mg/kg orally days 6, 7, 8), the “Hemagglutinin Titer* Test 1” value came out at 32.
As to `O=P1(N(CCCl)CCCl)NCCCO1` (stereo not drawn) [Cytoxan, reference compound], the “effect of Cytoxan dose on mammary tumor growth” value in series [1] (60 mg./kg. alone) is “ineffective dose”. Also, the “Ave. tumor diameter (mm.^2) (weeks after tumor implantation 3)” value in series [1] (Cytoxan 60 mg./kg. intraperitoneally alone, once every 7 days) amounted to 47 mm.^2. In addition, the “No. Survivors No. Treated” value in series [1] (Cytoxan 60 mg./kg. intraperitoneally alone, untreated control 7/8) is 6/8. For the same compound, in series [1] (setting [6]), the “Ave. tumor diameter (mm.^2) (weeks after tumor implantation 4)” value came to 101 mm.^2, the “Ave. tumor diameter (mm.^2) (weeks after tumor implantation 5)” value is on record as 187 mm.^2, the “Ave. tumor diameter (mm.^2) (weeks after tumor implantation 6)” value is 277 mm.^2 and the “Ave. tumor diameter (mm.^2) (weeks after tumor implantation 7)” value came to 363 mm.^2.

Values taken from EP0012139A1, “Therapeutic agent for stimulating the immune response in a mammal” (AMERICAN CYANAMID COMPANY, priority 1978, dated 1980).
